Assay results: patent publication US5792466A, “Mimetic insect kinin analogs for insect control” (The United States of America, as represented by the …, priority 1996, dated 1998)
Entries after “also recorded” stand apart in the source; their conditions may differ. Read-outs that look alike come from different tables or passages of the source. Ends that are not written are not given here. Peptide text beside a SMILES is read from it. QP = not defined here

What was measured:
[1] = test system: isolated Leucophaea maderae cockroach hindgut; settings: cited from earlier work; for Cockroach (Leucophaea maderae) hindgut contraction threshold (pM) ± (S.D.): naturally occurring achetakinins, Holman et al., 1990, reference (12); for potency in hindgut myotropic assay relative to parent or natural insect kinins: literature (Holman et al., 1987; Nachman et al., 1994)
[2] = test system: isolated Malpighian tubules of the cricket Acheta domesticus; settings: cited from earlier work; for EC50 / Cricket Malpighian tubule fluid secretion Maximum response (%): naturally occurring achetakinins; for EC50: read-out: Cricket (Acheta domesticus) Malpighian tubule fluid secretion EC50; for Cricket Malpighian tubule fluid secretion Maximum response (%): literature reference (6)
[3] = test system: angiotensin converting enzyme (ACE) from the housefly Musca domestica; settings: cited from earlier work
[4] = test system: isolated Leucophaea maderae cockroach hindgut; test: Cockroach hindgut myotropic bioassay; assay type: cell-based; settings: for potency in the cockroach hindgut myotropic assay relative to the most potent of the achetakinins (AK-IV): comparison of threshold concentrations; for Cockroach (Leucophaea maderae) hindgut contraction threshold (pM) ± (S.D.): minimum concentration evoking observable change in contractions, Aib analogs; for threshold activities on the isolated cockroach hindgut bioassay: values in M
Experimental: Leucophaea maderae cockroaches were taken from stock colonies maintained at 27° C. and fed dry dog food ad lib. Cockroach hindguts, free of central nervous system (CNS) tissue, were dissected, immersed in saline, and prepared for recording of myogenic activity as previously described [Holman et al., 1991, Insect Biochem., 21(1):107-112]. Threshold concentrations were determined for each analogue by adding a known quantity of peptide (dissolved in 0.5 ml bioassay saline) to the bioassay chamber containing the hindgut and observing the response on a Gould 2200S oscillograph recorder. The quantity of the peptide analogues was calculated from the values obtained for Phe in the amino acid analysis. The threshold concentration was defined as the minimum concentration of peptide in the chamber required to evoke an observable change in the frequency (50%) or amplitude of contractions (5%) within 1 min and sustained for 3 min. Threshold concentrations were obtained from five cockroach hindguts on 5 consecutive days for each peptide. Quantitative data for dose-response plots were obtained as previously described (Holman et al., 1991, ibid).

[5] = test system: isolated Malpighian tubules of the cricket Acheta domesticus; test: Cricket Malpighian tubule secretion bioassay; assay type: cell-based; settings: for Cricket Malpighian tubule fluid secretion Maximum response (%): percentage of the response to a supermaximal dose (10 nM) of achetakinin-I, Aib analogs
From the text: Crickets were reared as described (Clifford et al., 1977, Ann. Entomol. Soc. Am., 70:69-74) and fed a diet of turkey starter crumbs. Water was provided ad lib. Malpighian tubules were removed from 6-12-day-old adult virgin females. Single tubules were isolated in vitro as described (Coast, G. M., 1988, Physiol. Entomol., 13:381-391). After a 40-min equilibration period, the bathing fluid was changed and the rate of secretion, in picoliters per millimeter length of tubule per minute (pl/mm/min), was determined over 40 min (control rate). Thereafter, the bathing fluid was exchanged for one containing the assay material and the rate of secretion was determined over an additional 40-min period (experimental rate). Diuretic activity was calculated as the difference between control and experimental rates, and results are expressed as a percentage of the response obtained with a supermaximal dose (10 nM) of achetakinin-I assayed alongside the test analogues. All experiments were performed at room temperature (21°-24° C.) (Coast et al., 1990, ibid).

[6] = test system: angiotensin converting enzyme (ACE) from the housefly Musca domestica; test: ACE enzyme hydrolysis trials; assay type: in vitro ADME; settings: pH 8.3, 37° C., over 120 minutes
Experimental: Musca ACE (Mr, 67,000) was purified from a soluble extract of adults as described elsewhere (Cornell et al., J. Biol. Chem., in press; Lamango and Isaac, J. Biol. Chem., in press) and yielded enzyme which appeared as a single band by SDS-PAGE. Unless otherwise stated, peptides (12-750 μM, final concentration) were incubated with Musca ACE in 100 mM Tris/HCl, pH 8.3 in the presence of 10 μM ZnCl2 and 0.3M NaCl at 37° C. Reactions (15 μl) were terminated either by heating to 100° C. for 5 min or by the addition of 5 μl of 8% (v/v) TFA, followed by centrifugation (13000 g, Microcentaur) for 2 min and diluted to 100 μl with 0.1% (v/v) TFA before HPLC analysis.
HPLC analysis was performed using a Pharmacia SuperPac Pep-S column (250 mm×4 mm, internal diameter) packed with 5 μm ODS particles. The solvent system comprised elution with 5% acetonitrile in 0.1% (v/v) trifluoroacetic acid for 3 min, followed by a linear increase of the acetonitrile component from 3 to 41% in 11 min (total run time of 14 min).

[7] = Lamango et al., Peptides, submitted

For “AFHSWG-NH2 [AK-V, A--Phe--His--Ser--Trp--Gly--NH2]”, the “Cockroach (Leucophaea maderae) hindgut contraction threshold (pM) ± (S.D.)” value (“Cockroach … (S.D.)” for short) [1] is given as 43 pM, the EC50 ([2]; Coast et al., 1990) is given as 0.018 nM and the “Cricket Malpighian tubule fluid secretion Maximum response (%)” value [2] is given as 88%.
In the case of “DPGFSSWG-NH2 [LK-II, DPG--Phe--Ser--Ser--Trp--Gly--NH2]”, the “hydrolysis by ACE” value [3, 7] is given as “hydrolyze”.
For “FYPWG-NH2 [Phe--Tyr--Pro--Trp--Gly--NH2]”, the “potency in hindgut myotropic assay relative to parent or natural insect kinins” value [1] is listed as “equipotent with the parent nonapeptide” and the “potency in cricket Malpighian tubule secretion assay relative to parent nonapeptide” value ([2]; Coast et al., 1990) is listed as “equipotent with the parent nonapeptide”.
In the case of CC(C)(NC(=O)[C@H](Cc1ccccc1)NC(=O)[C@H](Cc1ccccc1)NC(=O)[C@H](CCCCN)NC(=O)[C@@H]1CCC(=O)N1)C(=O)N[C@@H](Cc1c[nH]c2ccccc12)C(=O)NCC(N)=O [pGlu--Lys--Phe--Phe--Aib--Trp--Gly--NH2] (HELM PEPTIDE1{[Glp].K.F.F.[Aib].W.G.[am]}$$$$V2.0), the “potency in the cockroach hindgut myotropic assay relative to the most potent of the achetakinins (AK-IV)” value [4] is reported as “an order of magnitude more potent”, the “Cockroach … (S.D.)” value [4] is reported as 3.5 pM and the “threshold activities on the isolated cockroach hindgut bioassay” value (from here on “threshold activities”) [4] is reported as 3.5 pM. For the same compound, the “Cricket Malpighian tubule fluid secretion Maximum response (%)” value [5] was 101%.
In the case of “QP--Phe--His--Ser--Trp--Gly--NH2 ({QP}-FHSWG-NH2; reading uncertain; also: printed as QP--Phe--His--Ser--Trp--Gly--NH2) [Cus-DP-I]”, the “hydrolysis by ACE” value [3, 7] is listed as “hydrolyze”.
For “KFFPWG-NH2 [Lys--Phe--Phe--Pro--Trp--Gly--NH2]”, the “potency in hindgut myotropic assay relative to parent or natural insect kinins” value [1] is listed as “more active than the pentapeptide core and/or the naturally occurring insect kinins”.
For “SGADFYPWG-NH2 [AK-I, SGAD--Phe--Tyr--Pro--Trp--Gly--NH2]”, the “Cockroach … (S.D.)” value [1] is listed as 82 pM, the EC50 ([2]; Coast et al., 1990) is listed as 0.078 nM and the “Cricket Malpighian tubule fluid secretion Maximum response (%)” value [2] is listed as 86%.
For “NNANVFYPWG-NH2 [Cus-DP-II, NNANV-Phe--Tyr--Pro--Trp--Gly--NH2]”, the “hydrolysis by ACE” value [3, 7] is given as “hydrolyze”.
For “NFKFNPWG-NH2 [AK-IV, NFK--Phe--Asn--Pro--Trp--Gly--NH2]”, the “Cockroach … (S.D.)” value [1] is listed as 180 pM, the EC50 ([2]; Coast et al., 1990) is listed as 0.024 nM and the “Cricket Malpighian tubule fluid secretion Maximum response (%)” value [2] is listed as 96%.
For “SKYVSQK-Phe--Phe--Ser--Trp--Gly--NH2 [Cus-DP-III]”, the “hydrolysis by ACE” value [3] is listed as “hydrolyze”.
With CC(C)(NC(=O)[C@H](Cc1ccccc1)NC(=O)[C@H](Cc1ccccc1)NC(=O)[C@H](CCCCNC(=O)[C@@H]1CCC(=O)N1)NC(=O)[C@@H]1CCC(=O)N1)C(=O)N[C@@H](Cc1c[nH]c2ccccc12)C(=O)NCC(N)=O [pGlu--Lys(pGlu)--Phe--Phe--Aib--Trp--Gly--NH2] (HELM PEPTIDE1{[Glp].K.F.F.[Aib].W.G.[am]}|PEPTIDE2{[Glp]}$PEPTIDE1,PEPTIDE2,2:R3-1:R2$$$V2.0) the “potency in the cockroach hindgut myotropic assay relative to the most potent of the achetakinins (AK-IV)” value [4] was “three orders of magnitude less potent”, the “Cockroach … (S.D.)” value [4] was 28,000 pM and the “threshold activities” value [4] was 28000 pM. For the same compound, the “Cricket Malpighian tubule fluid secretion Maximum response (%)” value [5] was 103%.
In the case of “ALPFSSWG-NH2 [AK-III, ALP--Phe--Ser--Ser--Trp--Gly--NH2]”, the “Cockroach … (S.D.)” value [1] is given as 270 pM, the EC50 ([2]; Coast et al., 1990) is given as 0.324 nM and the “Cricket Malpighian tubule fluid secretion Maximum response (%)” value [2] is given as 108%.
With CC(C)(NC(=O)[C@H](Cc1ccccc1)NC(=O)[C@@H](N)Cc1ccccc1)C(=O)N[C@@H](Cc1c[nH]c2ccccc12)C(=O)NCC(N)=O [Phe--Phe--Aib--Trp--Gly--NH2] (HELM PEPTIDE1{F.F.[Aib].W.G.[am]}$$$$V2.0) the “potency in the cockroach hindgut myotropic assay relative to the most potent of the achetakinins (AK-IV)” value [4] was “roughly half as potent”, the “potency in the cockroach hindgut myotropic assay relative to the most potent of the achetakinins (AK-IV)” value ([4]; listed as first analog) was “one half as potent” and the “Cockroach … (S.D.)” value [4] was 100 pM. The “threshold activities” value [4] was 100 pM, the “hydrolysis by angiotensin converting enzyme (ACE)” value [6] was “complete resistance to ACE; also recorded: complete resistance to hydrolysis” and the “potency in the Malpighian tubule assay relative to the most potent naturally occurring achetakinin (AK-IV) / endogenous insect kinins” value ([5]; comparison of EC50 values) was “greater potency than the endogenous insect kinins”. The “Cricket Malpighian tubule fluid secretion Maximum response (%)” value [5] was 99%.
For “AYFSPWG-NH2 [AK-II, AY--Phe--Ser--Pro--Trp--Gly--NH2]”, the “Cockroach … (S.D.)” value [1] is listed as 48 pM, the EC50 ([2]; Coast et al., 1990) is listed as 0.022 nM and the “Cricket Malpighian tubule fluid secretion Maximum response (%)” value [2] is listed as 91%.
